The target in one experiment is T1, AXL (Homo sapiens, UniProt P30530).
T1 sequence (P30530 26-894): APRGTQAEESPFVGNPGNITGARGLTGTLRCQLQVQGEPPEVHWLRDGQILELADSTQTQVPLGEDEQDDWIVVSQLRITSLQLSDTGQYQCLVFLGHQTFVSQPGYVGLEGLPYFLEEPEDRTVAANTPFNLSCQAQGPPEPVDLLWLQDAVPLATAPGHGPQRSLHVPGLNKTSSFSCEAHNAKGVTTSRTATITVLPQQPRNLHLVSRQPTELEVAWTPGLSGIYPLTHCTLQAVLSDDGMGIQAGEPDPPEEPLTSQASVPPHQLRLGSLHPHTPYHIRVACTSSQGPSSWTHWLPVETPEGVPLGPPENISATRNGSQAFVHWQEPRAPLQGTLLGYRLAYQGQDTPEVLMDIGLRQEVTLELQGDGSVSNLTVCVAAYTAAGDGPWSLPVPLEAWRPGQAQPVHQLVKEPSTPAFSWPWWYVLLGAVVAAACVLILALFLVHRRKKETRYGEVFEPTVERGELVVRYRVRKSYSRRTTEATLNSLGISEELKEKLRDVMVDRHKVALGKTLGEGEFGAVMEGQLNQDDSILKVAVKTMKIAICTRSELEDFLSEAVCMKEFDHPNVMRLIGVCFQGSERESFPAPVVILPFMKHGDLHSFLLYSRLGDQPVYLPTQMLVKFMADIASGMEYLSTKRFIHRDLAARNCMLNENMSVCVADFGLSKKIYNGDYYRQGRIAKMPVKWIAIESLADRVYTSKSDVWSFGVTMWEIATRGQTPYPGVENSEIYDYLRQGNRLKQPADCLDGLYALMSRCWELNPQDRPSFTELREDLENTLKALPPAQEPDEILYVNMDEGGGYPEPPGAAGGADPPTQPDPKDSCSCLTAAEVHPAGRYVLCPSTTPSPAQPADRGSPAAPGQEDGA
Briefly: TR-FRET kinase activity assay, AXL. As to conditions: ATP at Km, 60 minutes. The experiment is classed as biochemical. The procedure, abridged: (§1)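 Enzyme, fluorescent peptide substrate and compound were mixed, and the reaction was started with ATP at each kinase's Km, in 50 mM HEPES pH 7.5, 10 mM MgCl2, 1 mM EGTA, 0.01% Brij 35, 1 mM DTT at RT. After 60 minutes EDTA quench, Eu-labelled phospho-specific antibody was added for 30 minutes, and IC50 was derived from TR-FRET signal loss.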
In general terms: In TR-FRET formats the signal depends on donor and acceptor labels being close together.

The target of a further experiment is T2, MERTK (Homo sapiens, UniProt Q12866).
T2 sequence (Q12866 21-999): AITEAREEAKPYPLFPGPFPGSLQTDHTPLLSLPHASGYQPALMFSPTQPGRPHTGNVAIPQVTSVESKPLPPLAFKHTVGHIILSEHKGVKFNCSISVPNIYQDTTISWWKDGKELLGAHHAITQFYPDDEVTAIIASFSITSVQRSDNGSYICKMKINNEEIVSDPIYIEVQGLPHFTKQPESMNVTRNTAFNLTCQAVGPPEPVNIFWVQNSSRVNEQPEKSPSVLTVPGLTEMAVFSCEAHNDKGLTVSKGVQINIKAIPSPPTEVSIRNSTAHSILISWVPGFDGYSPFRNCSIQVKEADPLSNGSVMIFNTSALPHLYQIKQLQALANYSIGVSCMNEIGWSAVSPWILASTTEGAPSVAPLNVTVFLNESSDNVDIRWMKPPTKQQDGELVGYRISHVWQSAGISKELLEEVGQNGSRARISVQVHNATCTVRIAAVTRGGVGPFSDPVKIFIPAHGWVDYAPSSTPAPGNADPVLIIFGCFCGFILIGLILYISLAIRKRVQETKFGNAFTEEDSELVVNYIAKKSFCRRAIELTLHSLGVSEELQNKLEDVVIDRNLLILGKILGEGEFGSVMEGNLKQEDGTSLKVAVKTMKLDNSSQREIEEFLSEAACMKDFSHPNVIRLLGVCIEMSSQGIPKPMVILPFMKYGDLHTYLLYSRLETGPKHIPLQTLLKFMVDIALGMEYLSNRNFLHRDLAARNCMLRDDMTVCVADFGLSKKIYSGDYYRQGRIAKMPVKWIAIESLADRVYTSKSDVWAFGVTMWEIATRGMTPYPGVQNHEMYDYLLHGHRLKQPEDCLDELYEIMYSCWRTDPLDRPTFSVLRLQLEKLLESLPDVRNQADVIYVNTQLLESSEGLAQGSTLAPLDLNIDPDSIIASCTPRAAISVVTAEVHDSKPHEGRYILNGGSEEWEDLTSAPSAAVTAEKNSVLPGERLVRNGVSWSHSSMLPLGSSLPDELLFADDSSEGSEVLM
Put plainly: TR-FRET kinase activity assay, MERTK. The experiment is classed as biochemical. As to conditions: for IC50: TR-FRET activity assay, ATP at Km, 60 minutes, read-out: Mer IC50; for FLT3/Mer ratio (FLT3 IC50/Mer IC50): ratio of Mer to FLT3: FLT3 IC50/Mer IC50. In outline:
as §1

Counter-ions that a name gives are not always drawn.

Regarding `CNc1c(N[C@H]2CC[C@H](c3cc(-c4ccc(CN5CCOCC5)cc4)c4cnc(N[C@@H](C)COC)nn43)CC2)c(=O)c1=O` [Compound 316, 3-(((trans)-4-(2-(((S)-1-methoxypropan-2-yl)amino)-5-(4-(morpholinomethyl)phenyl)pyrrolo[2,1-f][1,2,4]triazin-7-yl)cyclohexyl)amino)-4-(methylamino)cyclobut-3-ene-1,2-dione], the IC50 at AXL is ≤ 100 nM. Moreover, on MERTK, the IC50 was ≤ 100 nM; the “FLT3/Mer ratio (FLT3 IC50/Mer IC50)” value is “++ (“++” represents a ratio of between 10 and 100)”.
With `Cc1nnc(Cn2cc(-c3cc([C@H]4CC[C@H](O)CC4)n4nc(N[C@@H](C)CC(F)(F)F)ncc34)cn2)o1` [Compound 296], the IC50 on AXL and on MERTK was ≤ 100 nM in each case. Besides, on MERTK, the “FLT3/Mer ratio (FLT3 IC50/Mer IC50)” value was “++ (“++” represents a ratio of between 10 and 100)”.
As to `COC[C@H](C)Nc1ncc2c(-c3cnn(C4CC(C(=O)OC)C4)c3)cc([C@H]3CC[C@H](O)CC3)n2n1` (stereo partly drawn) [Compound 330], at AXL, the IC50 is ≤ 100 nM. On MERTK, the IC50 was ≤ 100 nM and the “FLT3/Mer ratio (FLT3 IC50/Mer IC50)” value is on record as “+++ (“+++” represents a ratio of >100)”.
`C[C@@H](CC(F)(F)F)Nc1ncc2c(-c3cncc(C(=O)N4CCOCC4)c3)cc([C@H]3CC[C@H](O)CC3)n2n1` [Compound 311]: at AXL, the IC50 is ≤ 100 nM. Further, on MERTK, the IC50 was ≤ 100 nM and the “FLT3/Mer ratio (FLT3 IC50/Mer IC50)” value was “+++ (“+++” represents a ratio of >100)”.
For the molecule `COC[C@H](C)Nc1ncc2c(-c3cnn(C4CN(C(C)=O)C4)c3)cc([C@H]3CC[C@H](O)CC3)n2n1` [Compound 286], the IC50 against AXL and at MERTK was ≤ 100 nM in each case. Further, the “FLT3/Mer ratio (FLT3 IC50/Mer IC50)” value at MERTK was “+++ (“+++” represents a ratio of >100)”.
Regarding `C[C@@H](CC(F)(F)F)Nc1ncc2c(-c3cncc(C(=O)O)c3)cc([C@H]3CC[C@H](O)CC3)n2n1` [Compound 298], the IC50 on AXL was ≤ 100 nM. Further, at MERTK, the half-maximal inhibitory concentration (IC50) is ≤ 100 nM and the “FLT3/Mer ratio (FLT3 IC50/Mer IC50)” value is recorded as “+++ (“+++” represents a ratio of >100)”.
Take `COC[C@H](C)Nc1ncc2c(-c3cnn(Cc4cn[nH]c4)c3)cc([C@H]3CC[C@H](O)CC3)n2n1` [Compound 332]: the 50% inhibitory concentration (IC50) against AXL and on MERTK was ≤ 100 nM in each case. Moreover, the “FLT3/Mer ratio (FLT3 IC50/Mer IC50)” value on MERTK is “+++ (“+++” represents a ratio of >100)”.
Turning to `CC(CC(F)(F)F)Nc1ncc2c(-c3cnc(C(=O)O)nc3)cc(C3CCC(O)CC3)n2n1` (stereo not drawn) [Compound 299], the IC50 against AXL was ≤ 100 nM. Also, at MERTK, the half-inhibitory concentration (IC50) was ≤ 100 nM and the “FLT3/Mer ratio (FLT3 IC50/Mer IC50)” value is reported as “+++ (“+++” represents a ratio of >100)”.
Regarding `COC[C@H](C)Nc1ncc2c(-c3cnn(CCS(C)(=O)=O)c3)cc([C@H]3CC[C@H](O)CC3)n2n1` [Compound 280], at AXL, the IC50 is ≤ 100 nM. Also, on MERTK, the IC50 is ≤ 100 nM and the “FLT3/Mer ratio (FLT3 IC50/Mer IC50)” value is reported as “+++ (“+++” represents a ratio of >100)”.
On to `CC(CC(F)(F)F)Nc1ncc2c(-c3cncc(S(C)(=O)=O)c3)cc(C3CCC(O)CC3)n2n1` (stereo not drawn) [Compound 273], for which the 50% inhibitory concentration (IC50) against AXL is ≤ 100 nM. Besides, on MERTK, the IC50 is ≤ 100 nM and the “FLT3/Mer ratio (FLT3 IC50/Mer IC50)” value is recorded as “+++ (“+++” represents a ratio of >100)”.
As for `COC[C@H](C)Nc1ncc2c(-c3ccc(CN4CCOCC4)cc3)cc([C@H]3CC[C@H](NS(C)(=O)=O)CC3)n2n1` [Compound 301], at AXL, the half-inhibitory concentration (IC50) was ≤ 100 nM. Also, on MERTK, the IC50 was ≤ 100 nM and the “FLT3/Mer ratio (FLT3 IC50/Mer IC50)” value is reported as “+++ (“+++” represents a ratio of >100)”.
As for `CNS(=O)(=O)c1cncc(-c2cc([C@H]3CC[C@H](O)CC3)n3nc(N[C@@H](C)CC(F)(F)F)ncc23)c1` [Compound 278], the IC50 at AXL is ≤ 100 nM. Besides, on MERTK, the IC50 is ≤ 100 nM and the “FLT3/Mer ratio (FLT3 IC50/Mer IC50)” value was “+++ (“+++” represents a ratio of >100)”.
As for `COC[C@H](C)Nc1ncc2c(-c3cnn(C(C)(C)C(=O)N4CC5(COC5)C4)c3)cc([C@H]3CC[C@H](O)CC3)n2n1` [Compound 326], the IC50 against AXL is ≤ 100 nM. In addition, at MERTK, the IC50 was ≤ 100 nM and the “FLT3/Mer ratio (FLT3 IC50/Mer IC50)” value is “+++ (“+++” represents a ratio of >100)”.
Regarding `COCCn1cc(-c2cc([C@H]3CC[C@H](O)CC3)n3nc(N[C@@H](C)COC(F)F)ncc23)cn1` [Compound 274], the IC50 against AXL and on MERTK was ≤ 100 nM in each case. The “FLT3/Mer ratio (FLT3 IC50/Mer IC50)” value on MERTK is “+++ (“+++” represents a ratio of >100)”.
Consider `COC[C@H](C)Nc1ncc2c(-c3cnn(Cc4cnc(C)cn4)c3)cc([C@H]3CC[C@H](O)CC3)n2n1` [Compound 306], for which the IC50 against AXL is ≤ 100 nM. At MERTK, the IC50 is ≤ 100 nM and the “FLT3/Mer ratio (FLT3 IC50/Mer IC50)” value is recorded as “+++ (“+++” represents a ratio of >100)”.
With `C[C@@H](CC(F)(F)F)Nc1ncc2c(-c3ccc(S(C)(=O)=O)nc3)cc([C@H]3CC[C@H](O)CC3)n2n1` [Compound 297], the IC50 at AXL and at MERTK was ≤ 100 nM throughout. Also, on MERTK, the “FLT3/Mer ratio (FLT3 IC50/Mer IC50)” value was “++ (“++” represents a ratio of between 10 and 100)”.
Consider `Cc1ccc(-c2cc([C@H]3CC[C@H](O)CC3)n3nc(N[C@@H](C)COC(F)F)ncc23)cn1` [Compound 321], for which the IC50 on AXL and on MERTK was ≤ 100 nM throughout. Also, the “FLT3/Mer ratio (FLT3 IC50/Mer IC50)” value on MERTK is on record as “+++ (“+++” represents a ratio of >100)”.
On to `CCCCC[C@H](C)Nc1ncc2c(N3CCNCC3)cc([C@H]3CC[C@H](O)CC3)n2n1` [Compound 114], for which the IC50 against AXL is ≤ 100 nM. At MERTK, the IC50 was ≤ 100 nM and the “FLT3/Mer ratio (FLT3 IC50/Mer IC50)” value is given as “+++ (“+++” represents a ratio of >100)”.
In the case of `COC[C@H](C)Nc1ncc2c(-c3cnn(C4CN(C(=O)C5COC5)C4)c3)cc([C@H]3CC[C@H](O)CC3)n2n1` [Compound 293], the IC50 against AXL is ≤ 100 nM. At MERTK, the IC50 is ≤ 100 nM and the “FLT3/Mer ratio (FLT3 IC50/Mer IC50)” value is “+++ (“+++” represents a ratio of >100)”.
For `COC[C@H](C)Nc1ncc2c(-c3cnn(Cc4nc(C)no4)c3)cc([C@H]3CC[C@H](O)CC3)n2n1` [Compound 292], on AXL, the IC50 is ≤ 100 nM. In addition, at MERTK, the IC50 is ≤ 100 nM and the “FLT3/Mer ratio (FLT3 IC50/Mer IC50)” value is “+++ (“+++” represents a ratio of >100)”.
As to `CCCCC[C@H](C)Nc1ncc2c(C3CCNCC3)cc([C@H]3CC[C@H](O)CC3)n2n1` [Compound 116, (1S,4r)-4-(2-((S)-heptan-2-ylamino)-5-(piperidin-4-yl)pyrrolo[2,1-f][1,2,4]triazin-7-yl)cyclohexanol hydrochloride], the IC50 at AXL was ≤ 100 nM. Besides, at MERTK, the IC50 was ≤ 100 nM and the “FLT3/Mer ratio (FLT3 IC50/Mer IC50)” value is reported as “+++ (“+++” represents a ratio of >100)”.
On to `COC[C@H](C)Nc1ncc2c(-c3cnn(C4CN(CCC(F)(F)F)C4)c3)cc([C@H]3CC[C@H](O)CC3)n2n1` [Compound 291], for which, on AXL, the concentration for half-maximal inhibition (IC50) was ≤ 100 nM. For the same molecule, at MERTK, the IC50 is ≤ 100 nM and the “FLT3/Mer ratio (FLT3 IC50/Mer IC50)” value is “+++ (“+++” represents a ratio of >100)”.

One may read the IC50 as the concentration needed to halve the response being measured.

The record behind these values is US11040981B2, “Pyrrolotriazine compounds and methods of inhibiting TAM kinases” (Syros Pharmaceuticals, Inc., priority 2017, dated 2021).
